According to patent publication US20080242657A1, “Treatment of Tremor with Histamine H3 Inverse Agonists or Hist Amine H3 Antagonists” (priority 2004, published 2008):

Tested on: harmaline-induced tremor
Experiment: harmaline-induced tremor model in rats
Type: in vivo
Source text: The identification of a compound as a histamine H3 inverse agonist or a histamine H3 antagonist may be readily determined without undue experimentation by methodology well known in the art. The efficacy of a histamine H3 inverse agonist or a histamine H3 antagonist in treating tremor may be readily determined without undue experimentation by methodology well known in the art, for example the harmaline-induced tremor model in rats, Sinton, et al., Pflugers Archive Eur. J. Phys., 414(1) 31-36 (1989). […] The ability of the histamine H3 inverse agonist or histamine H3 antagonist to be used in the present invention to treat tremor or movement disorders may be determined by these methods.

With `N#Cc1ccc(-c2cnc(OC3CCN(C4CCCC4)CC3)nc2)cc1` [2-(1-cyclopentylpiperidine-4-yloxy)-5-(4-cyanophenyl)pyrimidine] the “reversal of harmaline-induced tremor” value (dose of 1 mg/kg) was 8.4%, the “reversal of harmaline-induced tremor” value (dose of 3 mg/kg) was 63.3% and the “reversal of harmaline-induced tremor” value (dose of 10 mg/kg) was 84.4%.
